Assay results reported in a melting point compilation (Tetko et al.; mined from patent text by program, amines drawn as free bases though some values may be those of a salt).

Row | Compound | melting point [°C]
1 | NC(=O)c1ccc(C(Cc2ccc(F)cc2)C(=O)Nc2nc3ccccc3o2)cc1 (configuration not stated) | 137 to 139
2 | COc1cc(C(=O)OCC2(N(C)C)CCSc3ccccc32)cc(OC)c1OC (configuration not stated) | 146 to 148
3 | CC(=O)OCc1c(Br)cccc1N1Cc2cc(C(C)(C)C)sc2C1=O | 172 to 173
4 | N[C@H]1C=C(C(=O)O)OC1 | 193 to 195
5 | O=[N+]([O-])c1cnn(C2CC2)c1 | 44 to 45
6 | O=C(O)CCCCCCCCCCCCCCCCCCC(=O)ON1C(=O)CCC1=O | 122 to 124
7 | CCCN1C[C@H]2CCc3cccc(O)c3[C@H]2C1 (relative stereo) | 180 to 184
8 | O=C(Oc1ccc(Cl)cc1)c1ncn2c1[C@@H]1CCCN1C(=O)c1c(Cl)cccc1-2 | 241 to 242
9 | COc1ccc(C(O)CNC(C)Cc2ccc(OCCO)cc2)cc1F (configuration not stated) | 112 to 115
10 | c1cc(-c2ccn3cnnc3c2)ccn1 | 194 to 196
11 | CC(C)(Sc1ccc(-n2cncn2)nn1)C(O)(Cn1cncn1)c1ccc(F)cc1F (single isomer, unassigned; (+)) | 226 to 227
12 | Cn1nc(O)cc1C(F)(F)C(F)(F)F | 119 to 124
13 | Nc1cc2[nH]c(=O)c(C(=O)O)nc2cc1F | > 300
14 | COc1cc(NCCC(=O)O)c(C(C)=O)cc1OC | 150 to 152
15 | CCc1ccc(Nc2nnc(Cc3ccnc(O)c3)c3ccccc23)cc1Br | 133 to 135
16 | Cc1ccc(-c2ccc(Cl)c(C(=O)NCC34CC5CC(CC(C5)C3)C4)c2)c(C(=O)O)n1 | 125 to 130
17 | O=NCNC1=Nc2sc(Cl)cc2C(c2ccccc2)=NC1 | 108 to 110
18 | N=C(NNC=O)c1ccc(-c2ccc(Cl)cc2)o1 | 155 to 157
19 | CCN(CC)c1cccc(N(CC)CC)c1C(=O)O | 112 to 114
20 | CNC(=O)c1ccccc1Nc1nc(Nc2ccc3c(c2)CCN(CCOC)CC3)ncc1Cl | 178 to 183
21 | CC1C(=O)N(c2cc(Cl)cc(Cl)c2)CS1=O (configuration not stated) | 146 to 149
22 | CCOC(=O)c1cn(C2CC2)c2c(F)c(F)c(F)c(CC)c2c1=O | 139 to 140
23 | COC(=O)COC(=O)c1ccc(OCC(=O)OC)cc1 | 53 to 57
24 | CCCCCCOC(Cc1ccc(OCCc2nc(-c3ccccc3)oc2C)c2ccsc12)C(=O)O (configuration not stated) | 79 to 82
25 | Cn1cnc(COc2nn3c(-c4ccccc4F)nnc3cc2C23CCC(C2)C3)n1 | 170 to 172
26 | CN(C)c1ccc(-c2ccc3c(c2)CC[C@H]2N(C)C(=O)CC[C@]32C)cc1 | 197 to 202

Row | Compound | melting point [°C]
27 | CNN1c2c(cc(Oc3ccc(F)cc3F)c(=O)n2NC)C=NC1SCc1ccccc1 (configuration not stated) | 80.5 to 89.9
28 | COc1cc(OC)nc(Oc2cccc(Cl)c2N)n1 | 86 to 87
29 | CCNc1c(S(=O)C(F)(F)F)c(C)nn1-c1c(Cl)cc(C(F)(F)F)cc1Cl (configuration not stated) | 76
30 | COC(=O)c1c(C(F)F)nc(C(F)(F)F)c(C(C#N)=C2OCCO2)c1CC(C)C | 121 to 122
31 | O=COCc1cc2c3ccccc3[nH]c(=O)n2n1 | 190 to 192
32 | CCN(c1nc(C)cc(-c2ccccc2C(F)(F)F)n1)c1c(Br)cc(N(C)C)cc1OC | 157 to 158
33 | CC1(C)Oc2cnccc2C2OC21 (configuration not stated) | 110 to 112
34 | COc1ccccc1N1CCN(CC2(C)N=C(c3cccnc3)NC2=O)CC1 (configuration not stated) | 159 to 162
35 | Nc1ccc(N2C(=O)c3ccc(Cl)cc3C2=O)c(Cl)c1 | 198 to 201
36 | COc1ccc(C2C3=C(COC3=O)Nc3ccc4cc(C)[nH]c4c32)c(F)c1 (configuration not stated) | 205 to 207
37 | Nc1cc(NS(=O)(=O)CCl)ccc1F | 128 to 129
38 | COc1cccc2c(Cc3nc(CCc4ccccc4)co3)coc12 | 69 to 70
39 | O=C(NCCO)c1csc(-c2cccc([N+](=O)[O-])c2)n1 | 145 to 146
40 | CCCOc1n[nH]c(=O)[nH]1 | 156
41 | COc1cc2ncc(C#N)c(Nc3cccc(F)c3)c2cc1OC | 226 to 230
42 | Nc1nc(NC2Cc3ccccc3N(S(=O)(=O)c3ccc(Cl)cc3Cl)C2)c2cn[nH]c2n1 (configuration not stated) | 153 to 163
43 | COc1ccc(N2CCN(n3c(C)n[nH]c3=O)CC2)cc1 | 264
44 | O=C(OCc1ccccc1)c1cc2ccccc2[nH]1 | 136
45 | CC12CCC(=O)C=C1CCC1C2CCC2(C)C(c3cccnc3)=CCC12 (configuration not stated) | 148 to 150
46 | C=C[C@]1(C)CCc2c(C)c(OCc3ccccc3)c(C)c(C)c2O1 | 63 to 66
47 | CC(=O)Nc1nc(O)c2cc(C=Cc3ccc(C(=O)OC(C)=O)cc3)cnc2n1 | > 300
48 | CCOC(=O)C1=C(CSCCNC=O)NC(C)=C(C(C)=O)C1c1cccc([N+](=O)[O-])c1 (configuration not stated) | 140 to 142
49 | CC(C)(O)Cc1c(Br)cnc2c(NC(=O)c3c(Cl)cccc3Cl)cccc12 | 260 to 262
50 | Cc1nc(C)n(-c2cc([C@@H]3C[C@H]3c3nc4ccccc4n3C)nc(C#N)n2)n1 (relative stereo) | 229 to 231
51 | Cc1cccc(C)c1N1Cc2cnc(Nc3ccccc3)nc2N(c2cccc(CCN)c2)C1=O | 128
52 | O=C(OCc1ccncc1)c1ccc2[nH]c(=O)n(Cc3ccc4c(c3)OCO4)c(=O)c2c1 | 204

Row | Compound | melting point [°C]
53 | CC(C)P1(=O)c2ccccc2CN1C(C)(C)C (configuration not stated) | 67 to 70
54 | CC(C)(C)C1=NN(c2ccc(C(=O)O)cc2)C(c2cccc(Br)c2)C1 (configuration not stated) | 216
55 | O=[N+]([O-])c1cn2c(n1)OC(COc1ccc(N3CCC(Cc4cc5cc(OC(F)(F)F)ccc5o4)CC3)cc1)CC2 (configuration not stated) | 142 to 143
56 | COc1ccc2cc([C@H](C)C(=O)OCCS(=O)CCOC(=O)OC(C)O[N+](=O)[O-])ccc2c1 (some centres not stated) | 112 to 115
57 | CCN(CC)Cc1nnc(-c2ncn3c2CN(C)C(=O)c2ccccc2-3)o1 | 235 to 238
58 | CCCCCCCCCCCC(CC(=O)C(CCCCCC)C(=O)OC)OC1CCCCO1 (configuration not stated) | 37 to 38
59 | O=C(O)c1ccc(OCCCC2CCN(c3ccc(Cl)nn3)CC2)cc1 | 209
60 | COc1ccc(C(=O)C(NCCc2ccc(OC)c(OC)c2Cl)SC)cc1 (configuration not stated) | 75 to 78
61 | Cc1ccc(N2C(=O)C(O)=C(C(=O)c3ccc(OC(F)(F)F)cc3)C2c2ccc(Cn3ccnn3)cc2)nn1 (configuration not stated) | 275
62 | CNC(=O)NC1CCCCc2sccc21 (configuration not stated) | 220 to 222
63 | CC(C)(C)NC(=O)c1ccc(Br)cc1 | 126 to 128
64 | N#CC(=CNc1ccccc1)Cc1ccc2c(c1)OCO2 | 150 to 151
65 | CS(=O)(=O)c1ccccc1OC(F)(F)F | 44 to 46
66 | O=C(O)CON=C1CCCc2cc(OCCn3ccnc3)ccc21 | 193 to 195
67 | O=C(O)CN1C(=O)C2(COc3cc4c(cc32)CCO4)c2c(Cl)cccc21 (configuration not stated) | 228 to 229
68 | CCC12CCC3C4CCC(=O)C=C4CCC3C1CCC2(C)O (configuration not stated) | 128 to 129
69 | Nc1ccc(OCC(=O)OCCO)cc1 | 104 to 106
70 | CCOC(=O)c1ccn2nc(-c3ccccc3)cc2n1 | 180 to 181
71 | COc1ccc(-c2cc(NC(=O)Nc3ccc(Cl)cc3)on2)cc1 | 165 to 170
72 | Nc1nn(Cc2ccccc2)c2nc3n(c(=O)c12)CCS3 | 233 to 236
73 | CCc1noc(-c2c[nH]c(-c3cccc(Oc4ccc(Br)cn4)c3)n2)n1 | 141 to 142
74 | COc1ccccc1Cc1n[nH]c2c1c(=O)n(-c1cccc(OC(F)(F)F)c1)c1ncccc21 | 243 to 245
75 | COC(=O)C1(C(=O)OC)CCn2c(C(=O)c3ccccc3)cc(Br)c21 | 109 to 110
76 | O=C1Cc2c(cccc2NC(=O)c2cccn(-c3ccc(F)cc3)c2=O)N1 | 293 to 295
77 | O=C(Nc1ccc(OC(F)(F)C(F)F)cc1)N1CC(c2ccccc2)C(c2ccc(OC(F)F)cc2)=N1 (configuration not stated) | 132 to 135
78 | N#CCN1CCc2oc3ccccc3c2C1 | 78

Row | Compound | melting point [°C]
79 | CCOC(=O)c1c(C(F)(F)F)nc(C(F)F)c(C#N)c1CC | 38 to 40
80 | CCOC(=O)Nc1nc2cc(C(O)c3ccccc3)ccc2[nH]1 (configuration not stated) | > 315
81 | O=C(O)C(=O)c1ccc(OCCOCCOc2ccccc2)cc1 | 58 to 59
82 | CCCCCCCCCCCCC(C)COc1ccc(C(C)=O)o1 (configuration not stated) | 45 to 47
83 | O=c1nc(-c2ccccc2)c2cc3c(cc2[nH]1)OCO3 | 351 to 354
84 | O=C(OC(c1ccccc1)c1ccccc1)C(=O)N1C(=O)[C@@H]2N=C(c3ccccc3)O[C@@H]21 | 182
85 | COC(=O)c1c(Oc2nc(OC)cc(OC)n2)ccc2ncccc12 | 160 to 162
86 | CC(Cc1ccc(C2=NNC(=O)CC2)cc1)NCC(O)c1cccc(Cl)c1 (configuration not stated) | 49 to 50
87 | NC(=O)c1cccc(OCCCCCCBr)c1 | 115 to 117
88 | O=C(O)c1ccc(-c2n[nH]c(-c3ccccc3)n2)cc1 | > 300
89 | Cc1nc(N2CCc3nc(C)sc3CC2)c([N+](=O)[O-])c(=O)[nH]1 | > 200
90 | Cc1ccc2c(c1)c(N1CCN(C(=O)c3cccs3)CC1)c(C#N)c(=O)n2C | 214
91 | Cc1ccc(S(=O)(=O)N2C(=O)N(c3ccc(Cl)cc3)C(C)(O)C2O)cc1 (configuration not stated) | 60 to 70
92 | O=C1Nc2ccccc2SC1CCCCCl (configuration not stated) | 111 to 112
93 | CCCNCCCOc1ccc(-c2ccc(C(=O)O)cc2)cc1-c1ccc2c(c1)C(C)(C)CCC2(C)C | 226
94 | COc1cn(-c2ccc(-c3c(C)noc3C)cc2F)nc(-c2ccnn2-c2ccccc2)c1=O | 200 to 202
95 | CCCCNC(=O)NS(=O)(=O)Cc1c(C(=O)OC)cccc1[N+](=O)[O-] | 144 to 150
96 | COC(=O)COc1ccc(C(=O)CC2CCN(c3ccncc3)CC2)cc1 | 137 to 138
97 | O=C(CCNC(=O)OCc1ccccc1)NCCSC(=O)c1ccccc1 | 115 to 118
98 | CC(C)(c1cc(F)ccc1O)c1cc(Cl)ccc1O | 125
99 | Cc1c(Br)csc1C#N | 54 to 58
100 | O=C(O)CCc1ccc(OCC2CCN(c3ccncc3)CC2)cc1 | 303 to 307
101 | CC(=O)c1ccc(Br)c(S(N)(=O)=O)c1 | 161
102 | O=C(c1ccc(Cl)cc1)c1ccccc1N=C=S | 162 to 166
